In the supplement of paper PMC10307832:

What was measured:
Assay in all cases: relative viability (nuclei count vs DMSO), 5 days (fraction); higher = more cells survive
Dovitinib + Olaparib = compound: CN1CCN(c2ccc3nc(-c4c(N)c5c(F)cccc5[nH]c4=O)[nH]c3c2)CC1 [Dovitinib] + O=C(c1cc(Cc2n[nH]c(=O)c3ccccc23)ccc1F)N1CCN(C(=O)C2CC2)CC1 [Olaparib] (partner 8 µM)
Summary of the method: (§1)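 For relative viability, nuclei counts in treated wells were divided by those in vehicle wells. Lung cancer cell lines had been pin-tool dosed in 1536-well plates the day after seeding and cultured for 5 days, then fixed and stained in one step (final 0.05% Triton X-100, 1% formaldehyde, 1 ug/ml Hoechst) and imaged at 4×. Doses were one drug alone or a fixed anchor-drug dose plus five library-drug doses (not always all listed) in √10 steps, and values are duplicate-plate medians.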

Dovitinib + Bortezomib = compound: CN1CCN(c2ccc3nc(-c4c(N)c5c(F)cccc5[nH]c4=O)[nH]c3c2)CC1 [Dovitinib] + CC(C)C[C@H](NC(=O)[C@H](Cc1ccccc1)NC(=O)c1cnccn1)B(O)O [Bortezomib] (partner 0.002 µM)
Summary of the method: as §1

Dovitinib + Pemetrexed = compound: CN1CCN(c2ccc3nc(-c4c(N)c5c(F)cccc5[nH]c4=O)[nH]c3c2)CC1 [Dovitinib] + Nc1nc2[nH]cc(CCc3ccc(C(=O)N[C@@H](CCC(=O)O)C(=O)O)cc3)c2c(=O)[nH]1 [Pemetrexed] (partner 0.2 µM)
Summary of the method: as §1

Dovitinib + Alpelisib = compound: CN1CCN(c2ccc3nc(-c4c(N)c5c(F)cccc5[nH]c4=O)[nH]c3c2)CC1 [Dovitinib] + Cc1nc(NC(=O)N2CCC[C@H]2C(N)=O)sc1-c1ccnc(C(C)(C)C(F)(F)F)c1 [Alpelisib] (partner 2 µM)
Summary of the method: as §1

Row | Cell Line | relative viability (Dovitinib + Olaparib; first compound 0.02 µM) | relative viability (Dovitinib + Olaparib; first compound 0.06325 µM) | relative viability (Dovitinib + Olaparib; first compound 0.2 µM) | relative viability (Dovitinib + Olaparib; first compound 0.6325 µM) | relative viability (Dovitinib + Olaparib; first compound 2 µM) | relative viability (Dovitinib + Bortezomib; first compound 0.02 µM) | relative viability (Dovitinib + Bortezomib; first compound 0.06325 µM) | relative viability (Dovitinib + Bortezomib; first compound 0.6325 µM) | relative viability (Dovitinib + Bortezomib; first compound 2 µM) | relative viability (Dovitinib + Pemetrexed; first compound 0.02 µM) | relative viability (Dovitinib + Pemetrexed; first compound 0.06325 µM) | relative viability (Dovitinib + Pemetrexed; first compound 0.2 µM) | relative viability (Dovitinib + Pemetrexed; first compound 0.6325 µM) | relative viability (Dovitinib + Pemetrexed; first compound 2 µM) | relative viability (Dovitinib + Alpelisib; first compound 0.02 µM) | relative viability (Dovitinib + Alpelisib; first compound 0.06325 µM) | relative viability (Dovitinib + Alpelisib; first compound 0.6325 µM) | relative viability (Dovitinib + Alpelisib; first compound 2 µM) | relative viability (Dovitinib + Alpelisib; first compound 0.2 µM) | relative viability (Dovitinib + Bortezomib; first compound 0.2 µM)
1 | 201T | 0.803 | 0.842 | 0.809 | 0.865 | 0.815 | 1.05 | 1.04 | 1.1 | 1.09 | 0.387 | 0.392 | 0.366 | 0.34 | 0.298 | 0.979 | 0.975 | 1.01 | 0.996 | – | –
2 | A549 | 0.301 | 0.329 | 0.353 | 0.458 | 0.353 | – | – | – | – | – | – | – | – | – | 0.802 | 0.757 | 0.801 | 0.671 | 0.701 | –
3 | A-427 | 0.711 | 0.641 | 0.773 | 0.797 | 0.822 | 0.87 | 0.909 | 0.93 | 1.03 | 0.907 | 0.988 | 1.04 | 0.967 | 1.06 | 0.979 | 1.03 | 0.938 | 1.03 | 1.07 | 0.953
4 | ABC-1 | 0.628 | 0.664 | 0.871 | 1.09 | 0.944 | 0.262 | 0.34 | 0.323 | 0.315 | – | – | – | – | – | 0.994 | 0.947 | 0.564 | 0.823 | 0.967 | 0.306
5 | BEN | 1.11 | 1.09 | 1.08 | 1.1 | 1.05 | 0.705 | 0.991 | 1.12 | 0.679 | 0.713 | 0.812 | 0.633 | 0.836 | 0.697 | 0.981 | 0.828 | 0.954 | 0.936 | 0.988 | 0.948
6 | CAL-12T | 0.69 | 0.434 | 0.733 | 0.61 | 0.713 | 1.28 | 1 | 0.977 | 1.05 | 1.11 | 1.16 | 1.21 | 1.24 | 1.17 | 1.16 | 1.06 | 1.37 | 1.15 | 1.18 | 1.1
7 | COR-L23 | 0.296 | 0.383 | 0.379 | 0.353 | 0.342 | 0.82 | 1.03 | 1.16 | 1.16 | 0.194 | 0.211 | 0.2 | 0.208 | 0.212 | 0.768 | 0.743 | 0.773 | 0.726 | 0.69 | 1.06
8 | COR-L 105 | 0.691 | 0.712 | 0.72 | 0.765 | 0.638 | 0.779 | 0.666 | 0.84 | 0.965 | 1.23 | 1.09 | 1.05 | 1 | 0.92 | 0.938 | 0.986 | 0.84 | 0.958 | 1.01 | 0.86
9 | Calu-6 | 0.572 | 0.578 | 0.553 | 0.571 | 0.809 | 1.05 | 0.992 | 0.993 | 0.98 | – | – | – | – | – | 0.943 | 0.97 | 0.925 | 1.01 | 0.872 | 1
10 | ChaGo-K-1 | 0.398 | 0.461 | 0.397 | 0.395 | 0.366 | 1.1 | 1.01 | 1.04 | 1.03 | 0.263 | 0.25 | 0.251 | 0.258 | 0.26 | – | – | – | – | – | 0.952
11 | EBC-1 | 0.723 | 0.69 | 0.664 | 0.712 | 0.677 | 0.543 | 0.488 | 0.564 | 0.587 | – | – | – | – | – | 0.951 | 0.781 | 0.73 | 0.708 | 0.925 | 0.571
12 | EKVX | 0.897 | 0.723 | 0.862 | 0.831 | 0.904 | 1.08 | 1.08 | 1.06 | 1.08 | 0.434 | 0.385 | 0.42 | 0.46 | 0.372 | 0.889 | 0.848 | 0.942 | 0.946 | 0.901 | 1.22
13 | EMC-BAC-2 | 0.569 | 0.513 | 0.5 | 0.486 | 0.504 | 1.05 | 0.995 | 1.05 | 1.04 | 0.555 | 0.442 | 0.487 | 0.445 | 0.459 | 0.784 | 0.772 | 0.687 | 0.736 | 0.701 | 1.08
14 | EPLC-272H | 0.815 | 0.893 | 0.793 | 0.681 | 0.57 | 0.917 | 0.949 | 0.875 | 0.905 | 0.408 | 0.35 | 0.274 | 0.398 | 0.372 | 0.9 | 0.815 | 0.946 | 0.888 | 0.97 | 0.883
15 | H3255 | 0.549 | 0.553 | 0.547 | 0.542 | 0.548 | 0.773 | 0.642 | 0.739 | 0.788 | 0.609 | 0.579 | 0.568 | 0.64 | 0.599 | 0.785 | 0.655 | 0.8 | 0.937 | 0.735 | 0.804
16 | HARA | 0.973 | 0.921 | 1.07 | 0.775 | 0.885 | 1.26 | 1.16 | 1.17 | 1.2 | 0.256 | 0.254 | 0.233 | 0.241 | 0.258 | 0.791 | 0.908 | 0.853 | 0.705 | 0.778 | 1.01
17 | HCC-15 | 0.687 | 0.703 | 0.71 | 0.696 | 0.726 | 1.03 | 1.07 | 1.05 | 1.02 | 0.225 | 0.228 | 0.213 | 0.231 | 0.216 | 0.916 | 0.868 | 0.848 | 0.939 | 0.915 | 1.02
